According to patent US9187464B2, “TRPV4 antagonists” (GlaxoSmithKline Intellectual Property (No. 2) Limited, priority 2011, dated 2015):

Target: T1, human TRPV4 (Homo sapiens, UniProt Q9HBA0)
T1 construct: expressed in transfected cells; host or cells: HEK-293-MSR-II cells transduced with 1% BacMam virus
Experiment: Ligand-gated assay (Fluo4 calcium, FLIPR; inhibition of agonist-induced activation)
Assay type: cell-based
Settings: HEK-293-MSR-II cells transduced with BacMam human TRPV4; agonist at EC80
Method in brief: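 HEK-293-MSR-II cells BacMam-transduced with human TRPV4, loaded with 2 uM Fluo-4. Compound preincubated 10 min at room temperature in HBSS pH 7.4 plus 0.01% Chaps, then agonist added at its EC80. Inhibition of agonist-evoked calcium rise read on FLIPR; IC50 reported.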

T1 sequence (Q9HBA0 whole entry): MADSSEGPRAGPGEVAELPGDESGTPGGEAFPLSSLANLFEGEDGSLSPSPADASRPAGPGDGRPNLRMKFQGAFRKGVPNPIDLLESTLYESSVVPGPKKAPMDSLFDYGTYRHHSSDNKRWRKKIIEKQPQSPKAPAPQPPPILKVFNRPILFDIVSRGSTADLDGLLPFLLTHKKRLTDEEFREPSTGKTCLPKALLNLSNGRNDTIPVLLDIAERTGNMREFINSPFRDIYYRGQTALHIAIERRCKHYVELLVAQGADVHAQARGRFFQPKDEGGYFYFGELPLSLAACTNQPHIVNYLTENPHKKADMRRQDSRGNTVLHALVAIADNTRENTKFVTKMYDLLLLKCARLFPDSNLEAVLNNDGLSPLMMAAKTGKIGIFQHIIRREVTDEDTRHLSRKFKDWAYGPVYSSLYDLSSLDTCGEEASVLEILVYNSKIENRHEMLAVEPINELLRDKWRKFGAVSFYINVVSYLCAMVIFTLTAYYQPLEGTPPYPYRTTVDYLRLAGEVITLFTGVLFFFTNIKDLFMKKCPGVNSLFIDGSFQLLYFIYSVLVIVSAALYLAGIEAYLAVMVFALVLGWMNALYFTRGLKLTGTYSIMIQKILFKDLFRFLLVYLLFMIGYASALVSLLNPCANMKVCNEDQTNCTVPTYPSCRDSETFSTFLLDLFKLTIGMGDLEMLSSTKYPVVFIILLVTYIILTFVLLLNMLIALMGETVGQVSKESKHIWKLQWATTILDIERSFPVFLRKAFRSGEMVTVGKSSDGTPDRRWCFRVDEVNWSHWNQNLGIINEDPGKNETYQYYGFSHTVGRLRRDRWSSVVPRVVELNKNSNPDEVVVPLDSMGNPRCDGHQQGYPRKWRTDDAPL

IC50	SMILES
0.1 to 10 nM	CC(C)(C#N)c1noc(N2C[C@@]3(CCC[C@](C)(Cn4cnc5ccc(C#N)cc54)C3)OC2=O)c1Cl [Example 107, 1-(((5S,7S)-3-(4-chloro-3-(2-cyanopropan-2-yl)isoxazol-5-yl)-7-methyl-2-oxo-1-oxa-3-azaspiro[4.5]decan-7-yl)methyl)-1H-benzo[d]imidazole-6-carbonitrile]
0.1 to 10 nM	C[C@]1(Cn2cnc3ccc(C#N)cc32)CCC[C@@]2(CN(Cc3cn(-c4ccccc4)nn3)C(=O)O2)C1 [Example 8, 1-({(5S,7S)-7-Methyl-2-oxo-3-[(1-phenyl-1H-1,2,3-triazol-4-yl)methyl]-1-oxa-3-azaspiro[4.5]dec-7-yl}methyl)-1H-benzimidazole-6-carbonitrile]
0.1 to 10 nM	Cn1cc(-c2cccc(CN3C[C@@]4(CCC[C@](C)(Cn5cnc6ccc(C#N)cc65)C4)OC3=O)n2)cn1 [Example 161, 1-(((5S,7S)-7-methyl-3-((6-(1-methyl-1H-pyrazol-4-yl)pyridin-2-yl)methyl)-2-oxo-1-oxa-3-azaspiro[4.5]decan-7-yl)methyl)-1H-benzo[d]imidazole-6-carbonitrile]
10 to 50 nM	C[C@]1(Cn2cnc3ccc(C#N)cc32)CCC[C@@]2(CN(c3cc(-c4ccccc4)no3)C(=O)O2)C1 [Example 35, 1-{[(5S,7S)-7-methyl-2-oxo-3-(3-phenyl-5-isoxazolyl)-1-oxa-3-azaspiro[4.5]dec-7-yl]methyl}-1H-benzimidazole-6-carbonitrile]
0.1 to 10 nM	N#Cc1ccc2ncn(C[C@H]3CCC[C@]4(C3)CN(Cc3csc5ccc(Cl)cc35)C(=O)O4)c2c1 [Example 27, 1-({(5S,7S)-3-[(5-Chloro-1-benzothien-3-yl)methyl]-2-oxo-1-oxa-3-azaspiro[4.5]dec-7-yl}methyl)-1H-benzimidazole-6-carbonitrile]
10 to 50 nM	Cc1ccc(N2C[C@@]3(CCC[C@](C)(Cn4cnc5ccc(C#N)cc54)C3)OC2=O)nc1 [Example 29, 1-{[(5S,7S)-7-methyl-3-(5-methyl-2-pyridinyl)-2-oxo-1-oxa-3-azaspiro[4.5]dec-7-yl]methyl}-1H-benzimidazole-6-carbonitrile]
50 to 500 nM	CCOc1ccc(N2C[C@@]3(CCC[C@](C)(Cn4cnc5ccc(C#N)cc54)C3)OC2=O)nn1 [Example 136, 1-({(5S,7S)-3-[6-(ethyloxy)-3-pyridazinyl]-7-methyl-2-oxo-1-oxa-3-azaspiro[4.5]dec-7-yl}methyl)-1H-benzimidazole-6-carbonitrile]
0.1 to 10 nM	CC(C)(C)c1cnc(N2C[C@@]3(CCC[C@](C)(Cn4cnc5ccc(C#N)cc54)C3)OC2=O)cn1 [Example 53, 1-(((5S,7S)-3-(5-(tert-butyl)pyrazin-2-yl)-7-methyl-2-oxo-1-oxa-3-azaspiro[4.5]decan-7-yl)methyl)-1H-benzo[d]imidazole-6-carbonitrile]
0.1 to 10 nM	COc1ccc(N2C[C@@]3(CCC[C@](C)(Cn4cnc5ccc(C#N)cc54)C3)OC2=O)c(OC)n1 [Example 110, 1-({(5S,7S)-3-[2,6-bis(methyloxy)-3-pyridinyl]-7-methyl-2-oxo-1-oxa-3-azaspiro[4.5]dec-7-yl}methyl)-1H-benzimidazole-6-carbonitrile]
0.1 to 10 nM	CC(C)Cc1cc(N2C[C@@]3(CCC[C@](C)(Cn4cnc5ccc(C#N)cc54)C3)OC2=O)on1 [Example 31, 1-({(5S,7S)-7-methyl-3-[3-(2-methylpropyl)-5-isoxazolyl]-2-oxo-1-oxa-3-azaspiro[4.5]dec-7-yl}methyl)-1H-benzimidazole-6-carbonitrile]
0.1 to 10 nM	CC(C)OCc1noc(C(C)(C)CN2C[C@@]3(CCC[C@H](Cn4cnc5ccc(C#N)cc54)C3)OC2=O)n1 [Example 83, 1-({(5S,7S)-3-[2-methyl-2-(3-{[(1-methylethyl)oxy]methyl}-1,2,4-oxadiazol-5-yl)propyl]-2-oxo-1-oxa-3-azaspiro[4.5]dec-7-yl}methyl)-1H-benzimidazole-6-carbonitrile]
0.1 to 10 nM	CC(C)(CN1C[C@@]2(CCC[C@H](Cn3cnc4c(Cl)cc(C#N)cc43)C2)OC1=O)c1nc(-c2ccccc2)no1 [Example 73, 4-chloro-1-({(5S,7S)-3-[2-methyl-2-(3-phenyl-1,2,4-oxadiazol-5-yl)propyl]-2-oxo-1-oxa-3-azaspiro[4.5]dec-7-yl}methyl)-1H-benzimidazole-6-carbonitrile]
10 to 50 nM	C[C@]1(Cn2cnc3ccc(C#N)cc32)CCC[C@@]2(CN(c3cc(C4(C#N)CC4)no3)C(=O)O2)C1 [Example 38, 1-({(5S,7S)-3-[3-(1-cyanocyclopropyl)-5-isoxazolyl]-7-methyl-2-oxo-1-oxa-3-azaspiro[4.5]dec-7-yl}methyl)-1H-benzimidazole-6-carbonitrile]
0.1 to 10 nM	N#Cc1cc(Cl)cc(-n2cc(CN3C[C@@]4(CCC[C@H](Cn5cnc6ccc(C#N)cc65)C4)OC3=O)nn2)c1 [Example 99, 1-[((5S,7S)-3-{[1-(3-chloro-5-cyanophenyl)-1H-1,2,3-triazol-4-yl]methyl}-2-oxo-1-oxa-3-azaspiro[4.5]dec-7-yl)methyl]-1H-benzimidazole-6-carbonitrile]
10 to 50 nM	CC(C)(C)c1coc(N2C[C@@]3(CCC[C@](C)(Cn4cnc5ccc(C#N)cc54)C3)OC2=O)n1 [Example 42, 1-(((5S,7S)-3-(4-(tert-butyl)oxazol-2-yl)-7-methyl-2-oxo-1-oxa-3-azaspiro[4.5]decan-7-yl)methyl)-1H-benzo[d]imidazole-6-carbonitrile]
50 to 500 nM	Cc1nc(C(F)(F)F)cnc1N1C[C@@]2(CCC[C@H](Cn3cnc4ccc(C#N)cc43)C2)OC1=O [Example 131, 1-(((5S,7S)-3-(3-methyl-5-(trifluoromethyl)pyrazin-2-yl)-2-oxo-1-oxa-3-azaspiro[4.5]decan-7-yl)methyl)-1H-benzo[d]imidazole-6-carbonitrile]
0.1 to 10 nM	C[C@]1(Cn2cnc3ccc(C#N)cc32)CCC[C@@]2(CN(c3ncc(Cl)cc3Cl)C(=O)O2)C1 [Example 112, 1-(((7S)-3-(3,5-dichloropyridin-2-yl)-7-methyl-2-oxo-1-oxa-3-azaspiro[4.5]decan-7-yl)methyl)-1H-benzo[d]imidazole-6-carbonitrile]
0.1 to 10 nM	C[C@]1(Cn2cnc3ccc(C#N)cc32)CCC[C@@]2(CN(c3ncc(Cl)cc3F)C(=O)O2)C1 [Example 114, 1-(((5S,7S)-3-(5-chloro-3-fluoropyridin-2-yl)-7-methyl-2-oxo-1-oxa-3-azaspiro[4.5]decan-7-yl)methyl)-1H-benzo[d]imidazole-6-carbonitrile]
10 to 50 nM	N#Cc1ccc2ncn(C[C@H]3CCC[C@]4(C3)CN(Cc3cc(-c5ccccc5)no3)C(=O)O4)c2c1 [Example 68, 1-({(5S,7S)-2-oxo-3-[(3-phenyl-5-isoxazolyl)methyl]-1-oxa-3-azaspiro[4.5]dec-7-yl}methyl)-1H-benzimidazole-6-carbonitrile]
10 to 50 nM	COc1cccc(-n2cc(CN3C[C@@]4(CCC[C@H](Cn5cnc6ccc(C#N)cc65)C4)OC3=O)nn2)c1 [Example 95, 1-{[(5S,7S)-3-({1-[3-(methyloxy)phenyl]-1H-1,2,3-triazol-4-yl}methyl)-2-oxo-1-oxa-3-azaspiro[4.5]dec-7-yl]methyl}-1H-benzimidazole-6-carbonitrile]
0.1 to 10 nM	CCOc1cc(C)c(N2C[C@@]3(CCC[C@](C)(Cn4cnc5ccc(C#N)cc54)C3)OC2=O)cn1 [Example 118, 1-(((5S,7S)-3-(6-ethoxy-4-methylpyridin-3-yl)-7-methyl-2-oxo-1-oxa-3-azaspiro[4.5]decan-7-yl)methyl)-1H-benzo[d]imidazole-6-carbonitrile]
50 to 500 nM	Cc1ccc(N2C[C@@]3(CCC[C@](C)(Cn4cnc5ccc(C#N)cc54)C3)OC2=O)cn1 [Example 140, 1-(((5S,7S)-7-methyl-3-(6-methylpyridin-3-yl)-2-oxo-1-oxa-3-azaspiro[4.5]decan-7-yl)methyl)-1H-benzo[d]imidazole-6-carbonitrile]
0.1 to 10 nM	C[C@]1(Cn2cnc3ccc(C#N)cc32)CCC[C@@]2(CN(c3cnc(C(F)(F)F)cn3)C(=O)O2)C1 [Example 115, 1-(((5S,7S)-7-methyl-2-oxo-3-(5-(trifluoromethyl)pyrazin-2-yl)-1-oxa-3-azaspiro[4.5]decan-7-yl)methyl)-1H-benzo[d]imidazole-6-carbonitrile]
10 to 50 nM	COc1cnc(N2C[C@@]3(CCC[C@](C)(Cn4cnc5ccc(C#N)cc54)C3)OC2=O)cn1 [Example 17, 1-(((7S)-3-(5-Methoxypyrazin-2-yl)-7-methyl-2-oxo-1-oxa-3-azaspiro[4.5]decan-7-yl)methyl)-1H-benzo[d]imidazole-6-carbonitrile]
0.1 to 10 nM	COc1ccc(N2C[C@@]3(CCC[C@](C)(Cn4cnc5ccc(C#N)cc54)C3)OC2=O)cn1 [Example 13]
50 to 500 nM	CC(C)(C)n1cc(N2C[C@@]3(CCC[C@](C)(Cn4cnc5ccc(C#N)cc54)C3)OC2=O)nn1 [Example 52, 1-(((5S,7S)-3-(1-(tert-butyl)-1H-1,2,3-triazol-4-yl)-7-methyl-2-oxo-1-oxa-3-azaspiro[4.5]decan-7-yl)methyl)-1H-benzo[d]imidazole-6-carbonitrile]
0.1 to 10 nM	Cn1cc(-c2ccnc(CN3C[C@@]4(CCC[C@](C)(Cn5cnc6ccc(C#N)cc65)C4)OC3=O)c2)cn1 [Example 160, 1-(((5S,7S)-7-methyl-3-((4-(1-methyl-1H-pyrazol-4-yl)pyridin-2-yl)methyl)-2-oxo-1-oxa-3-azaspiro[4.5]decan-7-yl)methyl)-1H-benzo[d]imidazole-6-carbonitrile]
10 to 50 nM	CC(C)(CN1C[C@@]2(CCC[C@H](Cn3cnc4ccc(C#N)cc43)C2)OC1=O)c1nc(C2CCOCC2)no1 [Example 65, 1-[((5S,7S)-3-{2-methyl-2-[3-(tetrahydro-2H-pyran-4-yl)-1,2,4-oxadiazol-5-yl]propyl}-2-oxo-1-oxa-3-azaspiro[4.5]dec-7-yl)methyl]-1H-benzimidazole-6-carbonitrile]
